Measured values from ChEMBL document CHEMBL3045432, “Synthesis and Fungicidal Activity of -Cyanoacetamide Derivatives: Discovery of a New Rice Blast Fungicide, Diclocymet (S-2900)” (2002).

What was measured:
Format in all cases: functional
Pyricularia grisea [1] = assay: Fungicidal activity against Magnaporthe grisea in rice plant assessed as prevention from rice blast disease measured as lesions under greenhouse at > 200 ppm for 8 days by foliar spray compound treated before inoculation
Pyricularia grisea [2] = assay: Fungicidal activity against Magnaporthe grisea in rice plant assessed as prevention from rice blast disease measured as lesions under greenhouse at > 200 ppm for 8 days by soil drench compound treated before inoculation
Pyricularia grisea [3] = assay: Fungicidal activity against Magnaporthe grisea in rice plant assessed as prevention from rice blast disease measured as lesions under greenhouse at 200 ppm for 8 days by foliar spray compound treated before inoculation
Pyricularia grisea [4] = assay: Fungicidal activity against Magnaporthe grisea in rice plant assessed as prevention from rice blast disease measured as lesions under greenhouse at 50 ppm for 8 days by soil drench compound treated before inoculation
Pyricularia grisea [5] = assay: Fungicidal activity against Magnaporthe grisea in rice plant assessed as prevention from rice blast disease measured as lesions under greenhouse at 200 ppm for 8 days by soil drench compound treated before inoculation
Pyricularia grisea [6] = assay: Fungicidal activity against Magnaporthe grisea in rice plant assessed as prevention from rice blast disease measured as lesions under greenhouse at 50 ppm for 8 days by foliar spray compound treated before inoculation
Pyricularia grisea [7] = assay: Fungicidal activity against Magnaporthe grisea in rice plant assessed as prevention from rice blast disease measured as lesions under greenhouse at 3.1 ppm for 8 days by foliar spray compound treated before inoculation
Pyricularia grisea [8] = assay: Fungicidal activity against Magnaporthe grisea in rice plant assessed as prevention from rice blast disease measured as lesions under greenhouse at 12.5 ppm for 8 days by soil drench compound treated before inoculation
Pyricularia grisea [9] = assay: Fungicidal activity against Magnaporthe grisea in rice plant assessed as rice blast disease measured as damage under greenhouse at 0.4 ppm for 8 days by foliar spray compound treated before inoculation
Pyricularia grisea [10] = assay: Fungicidal activity against Magnaporthe grisea in rice plant assessed as rice blast disease measured as damage under greenhouse by foliar spray for 8 days compound treated before inoculation; settings: 192 h
Pyricularia grisea [11] = assay: Fungicidal activity against Magnaporthe grisea in rice plant assessed as rice blast disease measured as damage under greenhouse at 6.3 ppm for 8 days by foliar spray compound treated before inoculation
Pyricularia grisea [12] = assay: Fungicidal activity against Magnaporthe grisea in rice plant assessed as rice blast disease measured as damage under greenhouse at 1.6 ppm for 8 days by foliar spray compound treated before inoculation
Pyricularia grisea [13] = assay: Fungicidal activity against Magnaporthe grisea in rice plant assessed as rice blast disease measured as damage under greenhouse at 25 ppm for 8 days by foliar spray compound treated before inoculation

Row | SMILES | Activity (Pyricularia grisea [1]) | Activity (Pyricularia grisea [2]) | Activity (Pyricularia grisea [3]) | also measured
1 | CC(C)=C(C#N)C(=O)NC(C)c1ccc(Cl)cc1 (centres undefined) | <=10% | <=10% | – | –
2 | CC(NC(=O)C1(C#N)CCCC1)c1ccc(Cl)cc1 (centres undefined) | <=10% | <=10% | – | –
3 | CC(NC(=O)C1(C#N)CCCCC1)c1ccc(Cl)cc1 (centres undefined) | <=10% | <=10% | – | –
4 | CCC(C#N)(CC)C(=O)NC(C)c1ccc(Cl)cc1 (centres undefined) | <=10% | <=10% | – | –
5 | CC(NC(=O)C(C)(C#N)C(C)(C)C)c1ccc(Cl)cc1 (centres undefined) | – | <=10% | <=10% | –
6 | CC(NC(=O)C(Br)(C#N)C(C)(C)C)c1ccc(Cl)cc1 (centres undefined) | – | – | <=10% | Activity (Pyricularia grisea [4]): <=10%
7 | CC(NC(=O)C(C)(C#N)C(C)C)c1ccc(Cl)cc1 (centres undefined) | <=10% | <=10% | – | –
8 | CC(NC(=O)C(C)(C)C#N)c1ccc(Cl)cc1 (centres undefined) | <=10% | <=10% | – | –
9 | CC(NC(=O)C(C#N)c1ccccc1)c1ccc(Cl)cc1 (centres undefined) | <=10% | <=10% | – | –
10 | CC(NC(=O)C(C#N)C1CCCC1)c1ccc(Cl)cc1 (centres undefined) | – | – | – | Activity (Pyricularia grisea [5]): <=10%; Activity (Pyricularia grisea [6]): <=10%
11 | CC(NC(=O)C(C#N)C1CCCCC1)c1ccc(Cl)cc1 (centres undefined) | – | <=10% | <=10% | –
12 | C#CC(C)(C)C(C#N)C(=O)NC(C)c1ccc(Cl)cc1 (centres undefined) | – | – | – | Activity (Pyricularia grisea [7]): <=10%; Activity (Pyricularia grisea [8]): <=10%
13 | C=CC(C)(C)C(C#N)C(=O)NC(C)c1ccc(Cl)cc1 (centres undefined) | – | – | – | Activity (Pyricularia grisea [7]): <=10%; Activity (Pyricularia grisea [8]): <=10%
14 | CC(NC(=O)C(C#N)CC(C)(C)C)c1ccc(Cl)cc1 (centres undefined) | – | – | <=10% | Activity (Pyricularia grisea [4]): <=10%
15 | CCC(CC)C(C#N)C(=O)NC(C)c1ccc(Cl)cc1 (centres undefined) | – | – | – | Activity (Pyricularia grisea [7]): <=10%; Activity (Pyricularia grisea [4]): <=10%
16 | CCC(C)C(C#N)C(=O)NC(C)c1ccc(Cl)cc1 (centres undefined) | – | – | – | Activity (Pyricularia grisea [4]): <=10%; Activity (Pyricularia grisea [6]): <=10%
17 | CC(C)CC(C#N)C(=O)NC(C)c1ccc(Cl)cc1 (centres undefined) | – | – | <=10% | Activity (Pyricularia grisea [5]): <=10%

Row | SMILES | Activity (Pyricularia grisea [1]) | Activity (Pyricularia grisea [2]) | Activity (Pyricularia grisea [3]) | also measured
18 | CCCCC(C#N)C(=O)NC(C)c1ccc(Cl)cc1 (centres undefined) | – | – | – | Activity (Pyricularia grisea [5]): <=10%; Activity (Pyricularia grisea [6]): <=10%
19 | CC(NC(=O)C(C#N)C(C)C)c1ccc(Cl)cc1 (centres undefined) | – | – | <=10% | Activity (Pyricularia grisea [4]): <=10%
20 | CC(C#N)C(=O)NC(C)c1ccc(Cl)cc1 (centres undefined) | <=10% | <=10% | – | –
21 | CC(NC(=O)C(C(C)(C)C)S(C)(=O)=O)c1ccc(Cl)cc1 (centres undefined) | – | <=10% | <=10% | –
22 | CC(NC(=O)C(O)C(C)(C)C)c1ccc(Cl)cc1 (centres undefined) | <=10% | <=10% | <=10% | –
23 | CC(NC(=O)C([S+](C)[O-])C(C)(C)C)c1ccc(Cl)cc1 (centres undefined) | <=10% | <=10% | – | –
24 | COC(C(=O)NC(C)c1ccc(Cl)cc1)C(C)(C)C (centres undefined) | <=10% | <=10% | <=10% | –
25 | C#CC(C(=O)NC(C)c1ccc(Cl)cc1)C(C)(C)C (centres undefined) | – | <=10% | <=10% | –
26 | CC(NC(=O)C(C#N)C(C)(C)C)c1ccc(Cl)cc1 (centres undefined) | – | – | – | Activity (Pyricularia grisea [7]): <=10%; Activity (Pyricularia grisea [8]): <=10%
27 | CC(NC(=O)C(F)C(C)(C)C)c1ccc(Cl)cc1 (centres undefined) | <=10% | <=10% | – | –
28 | CSC(C(=O)NC(C)c1ccc(Cl)cc1)C(C)(C)C (centres undefined) | – | <=10% | <=10% | –
29 | CC(NC(=O)C(Br)C(C)(C)C)c1ccc(Cl)cc1 (centres undefined) | – | – | – | Activity (Pyricularia grisea [5]): <=10%
30 | CC(C)(C)C(C#N)C(=O)NCCc1ccc(Cl)cc1 (centres undefined) | – | <=10% | <=10% | –
31 | CC(Cc1ccc(Cl)cc1)NC(=O)C(C#N)C(C)(C)C (centres undefined) | – | <=10% | <=10% | –
32 | COC(NC(=O)C(C#N)C(C)(C)C)c1ccc(Cl)cc1 (centres undefined) | <=10% | <=10% | – | –
33 | C[C@@H](NC(=O)C(C#N)C(C)(C)C)c1ccc(Cl)cc1Cl (mixture of isomers) [DICLOCYMET] | – | – | – | Activity (Pyricularia grisea [9]): 2%; MIC (Pyricularia grisea [10]): 0.08 µg/mL; Activity (Pyricularia grisea [11]): 4%; Activity (Pyricularia grisea [12]): 3%; Activity (Pyricularia grisea [13]): 4%
34 | O=C1OCc2c(Cl)c(Cl)c(Cl)c(Cl)c21 [4,5,6,7-TETRACHLOROPHTHALIDE] | – | – | – | Activity (Pyricularia grisea [9]): 0%; Activity (Pyricularia grisea [11]): 1%; Activity (Pyricularia grisea [12]): 0%; Activity (Pyricularia grisea [13]): 4%
